Assay results as given in article PMC7238120, “Strong and Selective Inhibitory Effects of the Biflavonoid Selamariscina A against CYP2C8 and CYP2C9 Enzyme Activities in Human Liver Microsomes” (Pharmaceutics, 2020).
Where two headings read alike, the source gives them in different places.

Experiments:
CYP2C9 [1] = target: T1, CYP2C9 (Homo sapiens, UniProt P11712); conditions: compared with diclofenac hydroxylase inhibition; S-mephenytoin 25 µM printed as substrate; read-out: IC50 reported by von Moltke et al. (2004); cited from earlier work
T1 sequence (P11712 whole entry): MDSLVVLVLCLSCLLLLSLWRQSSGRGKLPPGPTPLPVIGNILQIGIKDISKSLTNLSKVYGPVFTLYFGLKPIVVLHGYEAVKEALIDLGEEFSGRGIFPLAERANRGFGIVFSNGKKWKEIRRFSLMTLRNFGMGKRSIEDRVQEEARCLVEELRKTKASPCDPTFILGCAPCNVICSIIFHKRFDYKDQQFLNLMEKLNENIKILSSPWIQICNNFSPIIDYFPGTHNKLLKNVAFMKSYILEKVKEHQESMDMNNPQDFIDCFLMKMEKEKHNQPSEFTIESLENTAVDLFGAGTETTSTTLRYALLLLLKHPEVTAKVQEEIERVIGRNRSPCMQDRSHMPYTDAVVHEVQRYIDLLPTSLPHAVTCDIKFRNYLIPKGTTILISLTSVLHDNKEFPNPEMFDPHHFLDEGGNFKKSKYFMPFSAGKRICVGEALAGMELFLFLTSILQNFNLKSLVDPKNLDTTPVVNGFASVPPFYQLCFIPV

CYP2C8 = target: T2, CYP2C8 (Homo sapiens, UniProt P10632); experiment: Time-dependent inhibition (IC50 shift) of CYP2C8, amodiaquine, human liver microsomes; type: in vitro ADME; parameters: incubation mixtures containing pooled human liver microsomes (HLMs, XTreme 200, XenoTech); tissue XenoTech XTreme 200; host or cells: pooled human liver microsomes
T2 sequence (P10632 1-490): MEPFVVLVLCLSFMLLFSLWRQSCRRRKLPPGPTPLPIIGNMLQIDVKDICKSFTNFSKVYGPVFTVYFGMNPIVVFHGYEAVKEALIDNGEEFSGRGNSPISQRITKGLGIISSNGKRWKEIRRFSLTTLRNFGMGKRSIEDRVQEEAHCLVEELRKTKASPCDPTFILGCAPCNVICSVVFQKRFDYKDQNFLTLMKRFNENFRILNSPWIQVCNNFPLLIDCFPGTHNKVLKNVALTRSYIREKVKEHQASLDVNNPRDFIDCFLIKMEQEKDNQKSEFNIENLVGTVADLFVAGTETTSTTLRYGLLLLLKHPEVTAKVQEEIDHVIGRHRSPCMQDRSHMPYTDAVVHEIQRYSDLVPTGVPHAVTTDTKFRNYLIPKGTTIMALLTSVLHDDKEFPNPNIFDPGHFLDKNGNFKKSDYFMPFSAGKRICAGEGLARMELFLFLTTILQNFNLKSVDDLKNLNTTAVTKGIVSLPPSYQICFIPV
Procedure: (§1) The time-dependent inhibition of selamariscina A against CYP2C8 and CYP2C9 enzymes was evaluated using an IC50 shift method. Selamariscina A was pre-incubated at six concentrations (0, 0.002, 0.005, 0.02, 0.05, and 0.2 μM) with HLMs in the presence of an NDAPH generation system for 30 min at 37 °C. The reaction was initiated by adding 1 μM amodiaquine or 10 μM diclofenac and further incubated for 10 min. Incubation was terminated by adding 50 μL of ice-cold acetonitrile containing 7 nM trimipramine. After centrifugation, aliquots of supernatants were analyzed by LC–MS/MS.
(§2) All metabolites and the IS were separated on a Kinetex XB-C18 column (100 × 2.10 mm, 2.6 μm, 100 Å; Phenomenex, Torrance, CA, USA) and analyzed using a Shimadzu LCMS 8060 triple-quadrupole mass spectrometer coupled with a Nexera X2 ultra high-performance liquid chromatography system (Shimadzu, Kyoto, Japan) equipped with an electrospray ionization interface. The mobile phase consisted of 0.1% formic acid in water (A) and 0.1% formic acid in acetonitrile (B). The elution condition was set as 8% B (0–0.5 min), 8%→60% B (0.5–5 min), 60% B (5–6 min), 60%→8% B (6–6.1 min) and 8% B (6.1–9 min) for the analysis of metabolites of P450 probe substrates and set as 0%→40% B (0–1 min), 40%→50% B (1–5 min), 50%→0% B (5–5.1 min), and 0% B (5.1–8 min) for the analysis of metabolites of UGT probe substrates. The flow rate was 0.2 mL/min. Electrospray ionization was performed in positive-ion mode at 4000 V or in negative-ion mode at −3500 V. The optimum operating conditions were determined as follows: vaporizer temperature, 300 °C; capillary temperature, 350 °C; collision gas (argon) pressure, 1.5 mTorr. Quantitation was conducted in selected reaction monitoring (SRM) modes with the precursor-to-product ion transition for each metabolite (Table 1 and Table 2).
(§3) We analyzed the data with Shimadzu LabSolution LC–MS software. The IC50 values were calculated by WinNonlin software (Pharsight, Mountain View, CA, USA). […]

CYP2C9 [2] = target: T1, CYP2C9; experiment: Time-dependent inhibition (IC50 shift) of CYP2C9, diclofenac, human liver microsomes; type: in vitro ADME; parameters: incubation mixtures containing pooled human liver microsomes (HLMs, XTreme 200, XenoTech); tissue XenoTech XTreme 200; host or cells: pooled human liver microsomes
Procedure: as §1, §2, §3

Row | IC50 (CYP2C8; 30 min pre-incubation at 37 °C with NADPH generation system, read-out: IC50, CYP2C8 amodiaquine, HLMs pre-incubated with NADPH generation system) [nM] | Time-dependent inhibition of CYP2C8 (CYP2C8; IC50 shift method) | IC50 (CYP2C8; no NADPH pre-incubation, read-out: IC50, CYP2C8 amodiaquine, untreated HLMs) [nM] | IC50 (CYP2C9 [2]; 30 min pre-incubation at 37 °C with NADPH generation system, read-out: IC50, CYP2C9 diclofenac, HLMs pre-incubated with NADPH generation system) [nM] | Time-dependent inhibition of CYP2C9 (CYP2C9 [2]; IC50 shift method) | IC50 at 10 min (CYP2C9 [2]; human, human liver microsomes, probe diclofenac (10 μM), no NADPH pre-incubation, read-out: IC50, CYP2C9 diclofenac, untreated HLMs) [nM] | Compound | IC50 (CYP2C9 [1]) [nM]
1 |  |  |  |  |  |  | O=c1cc(-c2ccc(O)c(-c3c(O)cc(O)c4c(=O)cc(-c5ccc(O)cc5)oc34)c2)oc2cc(O)cc(O)c12 [amentoflavone] | 35
2 | 31 | not a time-dependent inhibitor | 19 | 92 | not a time-dependent inhibitor | 54 | O=C1CC(c2cc(-c3c(O)ccc4c(=O)cc(-c5ccc(O)cc5)oc34)c(O)cc2O)Oc2cc(O)cc(O)c21 (stereo not shown) [selamariscina A] | 
